These results are taken from article PMC5380267 (Medicine, 2017).

Data set [1] can be described thus: Chronic allograft nephropathy diagnosis in renal transplant patients (protocol biopsies, Banff 97). As to conditions: EVR co-administration.
Procedure: Protocol biopsies were performed and graded according to the Banff 97 classification.[29]
Data set [2] is described as follows: MPA pharmacokinetics in renal transplant patients on MMF (plasma HPLC-UV, Bayesian estimation of AUC). Particulars: for AUC(0-t) / Cmax: human, plasma; for AUC(0-t): MPA AUC(0–12); for Patients with MPA AUC outside the therapeutic window range: range 30–60 h mg/L. The format is in vivo, human. The text has this:
Anonymized medical records of 404 patients receiving immunosuppressant therapy after renal transplantation hospitalized at Limoges University Hospital (France) during the study period from 2011 to 2012 were reviewed. […] The patients were excluded if they received immunosuppression with other medicaments and underwent transplantation of other organs.
All patients received prednisolone orally by standard hospital practice.
According to the MMF daily dose, the study patients were allocated into the 3 study groups: the low MMF dose group received 1000 mg per day (28 patients); medium MMF dose group, 2000 mg per day (54 patients); and high MMF dose group, 3000 mg per day (18 patients).
Blood samples were collected in EDTA tubes at 20 minutes, 1 and 3 hours after the administration of MMF. Plasma was separated by centrifugation. […] Blood serum (500 μL), an internal standard (50 μL) (thiopental in methanol 1 g/L diluted with deproteinized water to 25 mg/L), and calibrators were acidified with hydrochloric acid and extracted with dichloromethane (5 mL). […] The organic fraction was then evaporated to dryness under a stream of nitrogen. The dry residue was reconstituted with 100-μL elution solvent (KH2PO4 buffer/acetonitrile [70/30 v/v] at pH = 2.6). Then, the sample (40 μL) was injected into the HPLC system with a steel column Nucleosil C18, 5 μm (250 × 4.6 mm, id) and with UV detection at 300 nm.

Where [3] appears, read: Low-dose MMF group, 1000 mg/day, EVR group.

With `CO[C@H]1C[C@@H]2CC[C@@H](C)[C@@](O)(O2)C(=O)C(=O)N2CCCC[C@H]2C(=O)O[C@H]([C@H](C)C[C@@H]2CC[C@@H](OCCO)[C@H](OC)C2)CC(=O)[C@H](C)/C=C(\C)[C@@H](O)[C@@H](OC)C(=O)[C@H](C)C[C@H](C)/C=C/C=C/C=C/1C` [EVR, everolimus], the “Chronic allograft nephropathy diagnosed, patients” value stood at 50.0% in data set [1] (high MMF dose group (2 of 4)), 64.7% in data set [1] (in total), 77.8% in data set [1] (low MMF dose group (7 of 9)) and 50.0% in data set [1] (medium MMF dose group (2 of 4)).

By AUC(0-t) is commonly meant the area under the concentration-time curve up to a stated or last time point. In general, Cmax refers to the highest concentration seen after dosing. On to `COc1c(C)c2c(c(O)c1C/C=C(\C)CCC(=O)O)C(=O)OC2` [MPA, mycophenolic acid], for which, in data set [2] (CsA 120–180 mg versus 240–300 mg), the “MPA AUC lower in low CsA dose group versus high CsA dose group” value is “approximately 33%”. Further, the “MPA C0, mean ± SD (range)” value in data set [2] (CsA + MMF group, all MMF doses (n = 83)) is listed as 1.00 ± 0.47 (0.00–2.00) mg/L; in data set [2] (EVR + MMF group, all MMF doses (n = 17)), 2.58 ± 1.43 (0.68–4.98) mg/L; in data set [2] (High-dose MMF group, 3000 mg/day, CsA group), 1.29 ± 0.47 (1.00–2.00) mg/L; in data set [2] (High-dose MMF group, 3000 mg/day, EVR group), 3.19 ± 1.60 (1.41–4.89) mg/L; in data set [2] (Low-dose MMF group, 1000 mg/day, CsA group), 0.58 ± 0.51 (0.00–1.00) mg/L; in data set [2] (setting [3]) it was 1.61 ± 0.65 (0.68–2.24) mg/L. Moreover, the “MPA C0, mean ± SD (range)” value in data set [2] (Medium-dose MMF group, 2000 mg/day, EVR group) is given as 4.17 ± 0.78 (3.12–4.98) mg/L. Further, in data set [2] (setting [3]), the “MPA AUC(0–12), mean ± SD (range)” value is 31.89 ± 8.43 (20.82–42.25) h mg/L. The AUC(0-t) in data set [2] (mean ± SD (range), CsA + MMF group, all MMF doses (n = 83)) was 37900 ± 14100 ng·h/mL; in data set [2] (mean ± SD (range), EVR + MMF group, all MMF doses (n = 17)), 47000 ± 21900 ng·h/mL; in data set [2] (mean ± SD (range), High-dose MMF group, 3000 mg/day, CsA group), 44600 ± 14000 ng·h/mL; in data set [2] (mean ± SD (range), High-dose MMF group, 3000 mg/day, EVR group), 59500 ± 18300 ng·h/mL; in data set [2] (mean ± SD (range), Low-dose MMF group, 1000 mg/day, CsA group), 30600 ± 12700 ng·h/mL; in data set [2] (mean ± SD (range), Medium-dose MMF group, 2000 mg/day, CsA group) it was 38700 ± 13700 ng·h/mL. For the same molecule, the AUC(0-t) in data set [2] (mean ± SD (range), Medium-dose MMF group, 2000 mg/day, EVR group) was 68700 ± 22700 ng·h/mL; in data set [2] (mean ± SD, CsA + MMF, MMF 1000 mg/day, CsA 120–180 mg/day), 28100 ± 11000 ng·h/mL; in data set [2] (mean ± SD, CsA + MMF, MMF 1000 mg/day, CsA 180–240 mg/day) it was 40500 ± 11000 ng·h/mL; in data set [2] (mean ± SD, CsA + MMF, MMF 2000 mg/day, CsA 120–180 mg/day), 28800 ± 11100 ng·h/mL; in data set [2] (mean ± SD, CsA + MMF, MMF 2000 mg/day, CsA 180–240 mg/day), 41800 ± 15600 ng·h/mL; in data set [2] (mean ± SD, CsA + MMF, MMF 2000 mg/day, CsA 240–300 mg/day), 43000 ± 6270 ng·h/mL. In addition, the AUC(0-t) in data set [2] (mean ± SD, CsA + MMF, MMF 3000 mg/day, CsA 120–180 mg/day) is 36200 ± 3700 ng·h/mL; in data set [2] (mean ± SD, CsA + MMF, MMF 3000 mg/day, CsA 180–240 mg/day) it was 43400 ± 13100 ng·h/mL; in data set [2] (mean ± SD, CsA + MMF, MMF 3000 mg/day, CsA 240–300 mg/day), 56800 ± 16800 ng·h/mL. Further, the Cmax in data set [2] (MPA Cmax related to high-dose CsA, CsA >240 mg/day) was > 10000 ng/mL; in data set [2] (MPA Cmax, mean ± SD (range), CsA + MMF group, all MMF doses (n = 83)), 17600 ± 8510 ng/mL; in data set [2] (MPA Cmax, mean ± SD (range), EVR + MMF group, all MMF doses (n = 17)), 14300 ± 6380 ng/mL; in data set [2] (MPA Cmax, mean ± SD (range), High-dose MMF group, 3000 mg/day, CsA group) it was 21000 ± 7050 ng/mL; in data set [2] (MPA Cmax, mean ± SD (range), Low-dose MMF group, 1000 mg/day, CsA group), 15500 ± 8930 ng/mL; in data set [2] (MPA Cmax, mean ± SD (range), Low-dose MMF group, 1000 mg/day, EVR group), 10800 ± 4810 ng/mL. Further, the Cmax in data set [2] (MPA Cmax, mean ± SD (range), Medium-dose MMF group, 2000 mg/day, CsA group) was 17500 ± 8580 ng/mL; in data set [2] (MPA Cmax, mean ± SD (range), Medium-dose MMF group, 2000 mg/day, EVR group), 17400 ± 7740 ng/mL; in data set [2] (MPA Cmax, mean ± SD, CsA + MMF, MMF 1000 mg/day, CsA 120–180 mg/day), 12100 ± 5590 ng/mL; in data set [2] (MPA Cmax, mean ± SD, CsA + MMF, MMF 1000 mg/day, CsA 180–240 mg/day) it was 22800 ± 10800 ng/mL; in data set [2] (MPA Cmax, mean ± SD, CsA + MMF, MMF 2000 mg/day, CsA 120–180 mg/day), 13000 ± 6820 ng/mL; in data set [2] (MPA Cmax, mean ± SD, CsA + MMF, MMF 2000 mg/day, CsA 180–240 mg/day) it was 17000 ± 8020 ng/mL. In addition, the Cmax in data set [2] (MPA Cmax, mean ± SD, CsA + MMF, MMF 2000 mg/day, CsA 240–300 mg/day) is 22800 ± 8860 ng/mL; in data set [2] (MPA Cmax, mean ± SD, CsA + MMF, MMF 3000 mg/day, CsA 120–180 mg/day) it was 19000 ± 5390 ng/mL; in data set [2] (MPA Cmax, mean ± SD, CsA + MMF, MMF 3000 mg/day, CsA 180–240 mg/day), 22800 ± 8120 ng/mL; in data set [2] (MPA Cmax, mean ± SD, CsA + MMF, MMF 3000 mg/day, CsA 240–300 mg/day), 21200 ± 8770 ng/mL. In addition, in data set [2] (medium MMF dose (2000 mg)), the “MPA AUC(0–12) higher with MMF + EVR than with MMF + CsA” value was 43%. The figures for the “Patients with MPA AUC outside the therapeutic window range” value in data set [2] (MMF + CsA), in data set [2] (MMF + EVR) and in data set [2] (all study patients) were 31.3%, 47.00% and 34%, respectively.
